Patent publication US8383646B2, “Therapeutic ((bicylicheteroaryl)imidazolyl) methylheteroaryl compounds” (Allergan, Inc., priority 2007, dated 2013)

Key:
Assay type in all cases: cell-based
alpha2A receptor = target: T1, alpha2A receptor (Homo sapiens, UniProt P08913); assay: RSAT assay, alpha2A receptor; details: for Alpha 2A intrinsic activity (efficacy): ratio of maximal effect to that of standard full agonist brimonidine (UK14304), value in parentheses; for EC50: transfected NIH-3T3 cells with Gq/i5, ND = not determinable at concentrations less than 10 micromolar, read-out: Alpha 2A potency (EC50)
T1 construct: expressed in transfected cells; host or cells: NIH-3T3 cells
T1 sequence (P08913 1-465): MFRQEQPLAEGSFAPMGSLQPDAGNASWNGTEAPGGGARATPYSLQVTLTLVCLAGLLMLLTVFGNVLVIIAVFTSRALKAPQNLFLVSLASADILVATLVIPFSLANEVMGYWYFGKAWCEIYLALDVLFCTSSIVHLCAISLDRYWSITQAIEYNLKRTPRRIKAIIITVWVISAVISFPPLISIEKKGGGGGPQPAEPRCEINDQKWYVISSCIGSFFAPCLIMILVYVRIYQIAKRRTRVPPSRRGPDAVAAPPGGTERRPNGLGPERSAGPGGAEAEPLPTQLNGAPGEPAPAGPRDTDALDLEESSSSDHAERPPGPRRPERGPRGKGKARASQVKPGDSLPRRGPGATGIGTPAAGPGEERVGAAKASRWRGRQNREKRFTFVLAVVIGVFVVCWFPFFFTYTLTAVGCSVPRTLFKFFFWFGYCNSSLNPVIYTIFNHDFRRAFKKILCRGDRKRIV
Procedure: (§1) Receptor Selection and Amplification Technology (RSAT) Assay
(§2) The RSAT assay measures a receptor-mediated loss of contact inhibition that results in selective proliferation of receptor-containing cells in a mixed population of confluent cells. The increase in cell number is assessed with an appropriate transfected marker gene such as β-galactosidase, the activity of which can be easily measured in a 96-well format. Receptors that activate the G protein, Gq, elicit this response. Alpha2 receptors, which normally couple to Gi, activate the RSAT response when coexpressed with a hybrid Gq protein that has a Gi receptor recognition domain, called Gq/i5.
(§3) NIH-3T3 cells are plated at a density of 2×10^6 cells in 15 cm dishes and maintained in Dulbecco's modified Eagle's medium supplemented with 10% calf serum. One day later, cells are cotransfected by calcium phosphate precipitation with mammalian expression plasmids encoding p-SV-β-galactosidase (5-10 μg), receptor (1-2 μg) and G protein (1-2 μg). 40 μg salmon sperm DNA may also be included in the transfection mixture. Fresh media is added on the following day and 1-2 days later, cells are harvested and frozen in 50 assay aliquots. Cells are thawed and 100 μl added to 100 μl aliquots of various concentrations of drugs in triplicate in 96-well dishes. Incubations continue 72-96 hr at 37° C. After washing with phosphate-buffered saline, β-galactosidase enzyme activity is determined by adding 200 μl of the chromogenic substrate (consisting of 3.5 mM o-nitrophenyl-β-D-galactopyranoside and 0.5% nonidet P-40 in phosphate buffered saline), incubating overnight at 30° C. and measuring optical density at 420 nm. The absorbance is a measure of enzyme activity, which depends on cell number and reflects a receptor-mediated cell proliferation. The efficacy or intrinsic activity is calculated as a ratio of the maximal effect of the drug to the maximal effect of a standard full agonist for each receptor subtype. Brimonidine, also called UK14304, the chemical structure of which is shown below, is used as the standard agonist for the alpha2A, alpha2B and alpha2C receptors. The EC50 is the concentration at which the drug effect is half of its maximal effect.
(§4) The results of the RSAT assay with several exemplary compounds of the invention are disclosed in Table 1 above together with the chemical formulas of these exemplary compounds. EC50 values are nanomolar. ND stands for “not determinable” at concentrations less than 10 micromolar. IA stands for “intrinsic activity.”

alpha2C receptor = target: T2, alpha2C receptor (Homo sapiens, UniProt P18825); assay: RSAT assay, alpha2C receptor; details: for Alpha 2C intrinsic activity (efficacy): ratio of maximal effect to that of standard full agonist brimonidine (UK14304), value in parentheses; for EC50: transfected NIH-3T3 cells with Gq/i5, ND = not determinable at concentrations less than 10 micromolar, read-out: Alpha 2C potency (EC50)
T2 construct: expressed in transfected cells; host or cells: NIH-3T3 cells
T2 sequence (P18825 1-462): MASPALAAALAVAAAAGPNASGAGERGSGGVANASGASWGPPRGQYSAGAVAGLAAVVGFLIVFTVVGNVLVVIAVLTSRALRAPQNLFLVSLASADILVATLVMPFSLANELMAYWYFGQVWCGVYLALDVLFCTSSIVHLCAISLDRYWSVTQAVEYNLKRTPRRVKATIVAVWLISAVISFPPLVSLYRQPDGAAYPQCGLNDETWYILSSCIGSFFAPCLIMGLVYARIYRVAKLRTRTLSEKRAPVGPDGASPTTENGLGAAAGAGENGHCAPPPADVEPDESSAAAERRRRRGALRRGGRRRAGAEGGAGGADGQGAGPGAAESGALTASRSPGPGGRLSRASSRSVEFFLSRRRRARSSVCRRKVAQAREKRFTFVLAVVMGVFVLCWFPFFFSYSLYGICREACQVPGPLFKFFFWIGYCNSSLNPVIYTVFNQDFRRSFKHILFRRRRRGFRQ
Procedure: as §1, §2, §3, §4

alpha2B receptor = target: T3, alpha2B receptor (Homo sapiens, UniProt P18089); assay: RSAT assay, alpha2B receptor; details: for Alpha 2B intrinsic activity (efficacy): ratio of maximal effect to that of standard full agonist brimonidine (UK14304), value in parentheses; for EC50: transfected NIH-3T3 cells with Gq/i5, ND = not determinable at concentrations less than 10 micromolar, read-out: Alpha 2B potency (EC50)
T3 construct: expressed in transfected cells; host or cells: NIH-3T3 cells
T3 sequence (P18089 1-450): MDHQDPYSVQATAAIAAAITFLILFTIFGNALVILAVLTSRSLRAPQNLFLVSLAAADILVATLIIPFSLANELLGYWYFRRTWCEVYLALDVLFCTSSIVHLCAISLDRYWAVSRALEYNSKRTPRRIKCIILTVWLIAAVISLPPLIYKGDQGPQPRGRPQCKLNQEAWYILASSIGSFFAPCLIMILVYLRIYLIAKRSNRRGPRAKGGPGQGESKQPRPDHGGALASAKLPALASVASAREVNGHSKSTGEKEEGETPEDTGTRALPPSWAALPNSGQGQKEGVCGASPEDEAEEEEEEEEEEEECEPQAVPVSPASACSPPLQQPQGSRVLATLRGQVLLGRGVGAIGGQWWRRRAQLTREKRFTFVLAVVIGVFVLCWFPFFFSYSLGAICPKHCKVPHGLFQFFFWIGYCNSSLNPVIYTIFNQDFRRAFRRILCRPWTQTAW
Procedure: as §1, §2, §3, §4

Compound	Alpha 2A intrinsic activity (efficacy) (alpha2A receptor)	EC50 (alpha2A receptor) [µM]	Alpha 2C intrinsic activity (efficacy) (alpha2C receptor)	EC50 (alpha2C receptor) [nM]	Alpha 2B intrinsic activity (efficacy) (alpha2B receptor)	EC50 (alpha2B receptor) [nM]
c1ccc(C(c2cnc[nH]2)c2cccc3cccnc23)nc1 (stereo not shown)	0.15	> 10	0.60	275	1.00	22
c1cncc(C(c2cnc[nH]2)c2cccc3cccnc23)c1 (stereo not shown)	0.50	0.576	1.16	123	1.29	2.15
c1ccc(C(c2cnc[nH]2)c2cccc3ncccc23)nc1 (stereo not shown)	0.13	> 10	0.22	> 10000	0.45	348
c1cncc(C(c2cnc[nH]2)c2cccc3ncccc23)c1 (stereo not shown)	0.12	> 10	0.33	> 10000	0.90	231
c1cc(C(c2ccncc2)c2cnc[nH]2)c2cccnc2c1 (stereo not shown)	–	> 10	0.18	> 10000	0.65	771
c1ccc(C(c2cnc[nH]2)c2cccc3c2OCC3)nc1 (stereo not shown)	0.23	–	0.86	159	0.87	9.12
c1cncc(C(c2cnc[nH]2)c2cccc3c2OCC3)c1 (stereo not shown)	0.46	0.43	1.12	157	1.13	10
